Measured values reported in US20060166271A1, “Non-radioactive schilling test” (priority 2003, published 2006).
“And” between values parts separate entries of the source, which are not always exact repeats. Equal values may be shown once.

Columns and labels:
[1] = oral dose; cited from earlier work
[2] = Schilling test I (urinary excretion of radioactive vitamin B12 over 24 hours); assay type: in vivo, human; conditions: individual patients with Crohn's disease; 1 μg oral Co-57 tagged vitamin B12, 24 hour urine; normal 10-40%
Experimental: (§1) In healthy subjects samples were taken at 8:00 a.m. on the day before vitamin B12 intake (−1) and on day 0, 1, 2, and 6. After the blood sample was removed on day 0, an oral dose of 9 μg vitamin B12 (Natur Drogeriet A/S, Hoerning, Denmark) was given three times, with 6 h between the doses (8 a.m., 2 p.m., and 8 p.m. (time points were allowed to deviate ±45 min). One healthy subject was unavailable for delivering a blood sample on day 6. The absorption of vitamin B12 in seven patients was evaluated by the Schilling test I and by the design mentioned above except that the blood samples were obtained only on day 0 and day 1. The Schilling test I was performed after our alternative approach.
The Schilling test I was performed as described previously (Chanarin, 1979). Briefly, a fasting patient is given a 1 μg oral dose of vitamin B12, which is tagged with radioactive cobalt (Co-57). Two hours after the oral dose the patient is then injected intramuscularly with 1000 μg of non-labeled vitamin B12. A 24 hour urine collection is initiated. The percentage of the administered dose excreted in the urine over 24 hours is then determined. Urinary excretion of 10-40% of the administered dose is considered normal.

[3] = Vitamin B12 absorption from serum vitamin B12, total TC and holo-TC before and after oral vitamin B12, healthy subjects; assay type: in vivo, human; conditions: for Holo-TC, median: serum
Text: (§2) The subjects participating in the study were 31 healthy subjects recruited in October 2002. None of them suffered from known disorders related to vitamin B12 deficiency. Persons with chronic systemic disease, persons taking any kind of medical treatment, including vitamin tablets within the past week and persons not being able to give written informed consent were excluded. The age of the healthy subjects ranged from to 25 to 57 (mean 40) years. There were 9 men and 22 women. We further included seven patients (age 22-39 years, five men and two women) who had been referred to the out-patient clinic of internal medicine department during 2003 because vitamin B12 malabsorption was suspected. Three of the seven patients have previously been diagnosed as Crohn's disease. The diagnosis of the remaining four patients was not clear. Written informed consent was obtained from all subjects, and the Research Ethics Committee of Aarhus County approved the study protocol (2002.0224).
The absorption of vitamin B12 was evaluated from analysis of serum vitamin B12, total TC, and holo-TC on samples obtained before and after oral administration of vitamin B12.
as §1
The vitamin B12 tablets were given with either water or orange juice. The subjects were allowed to have a light breakfast 30 to 60 min before blood sampling, not including any diary products, but were otherwise allowed to eat their normal diet. The blood samples were centrifuged within 60 minutes and were stored at −80° C. until further processed.
Serum vitamin B12 was determined by a commercial method (Bayer corporation, NY) on a Centaur equipment (analytical imprecision<10%). Serum total TC and holo-TC were measured by ELISA as recently described (Nexø et al., 2000; 2002), but modified to allow the use of an automated ELISA analyser (BEP-2000, Dade Behring, Germany). The following modification was performed; all incubations were performed at 37° C. The analytical imprecision was 7% for total TC (mean=934 pmol/L, n=91) and 8% for holo-TC (mean=38 pmol/L, n=41). The controls were run over 12 months for total TC and 6 months for holo-TC. The reference interval was established from analysing 161 samples obtained from healthy blood donors (age interval; 21-65). The reference interval was 700-1400 pmol/L for total TC, ≧50 pmol/L for holo-TC and ≧0.05 for TC saturation. Haematological parameters were analysed on the Coulter Counter (Beckman Coulter CA). Plasma creatinine was measured using the Jaffe method and a Roche Cobas integra 700 autoanalyzer (analytical imprecision <3%).
Alterations (increase or decrease) in parameters as a function of time were analysed by comparing the changes obtained on the same individuals relative to baseline (day 0) with the theoretical median “0” assigned for day 0. […] P-values <5% were regarded as statistically significant. Data were analysed using SPSS10.0 (SPSS Inc.) and the GraphPad (Prism2) software.

[4] = Vitamin B12 absorption from serum holo-TC and TC saturation before and after oral vitamin B12, patients with suspected malabsorption; assay type: in vivo, human; conditions: individual patients with Crohn's disease, day 1-day 0, oral 3 times 9 μg
Text: as §2, with “The diagnosis of the remaining four patients was not clear. Written informed consent was obtained from all subjects, and the Research Ethics Committee of Aarhus County approved the study protocol (2002.0224).” left out
The absorption of vitamin B12 was evaluated from analysis of serum vitamin B12, total TC, and holo-TC on samples obtained before and after oral administration of vitamin B12. […]
Serum vitamin B12 was determined by a commercial method (Bayer corporation, NY) on a Centaur equipment (analytical imprecision<10%). Serum total TC and holo-TC were measured by ELISA as recently described (Nexø et al., 2000; 2002), but modified to allow the use of an automated ELISA analyser (BEP-2000, Dade Behring, Germany). […] Haematological parameters were analysed on the Coulter Counter (Beckman Coulter CA). […]

[5] = DAY 1 after oral 3 times 9 μg vitamin B12, 31 healthy subjects
[6] = DAY 2 after oral 3 times 9 μg vitamin B12, 31 healthy subjects
[7] = DAY 6 after oral 3 times 9 μg vitamin B12, 31 healthy subjects
[8] = control subjects after omitting outliers (n=2)
[9] = one day after oral dose of three times 9 μg, healthy subjects (discussion)
[10] = relative to baseline (day 0), oral 3 times 9 μg, healthy subjects
[11] = relative to baseline (day 0), oral 3 times 9 μg, n=31 healthy subjects

cobalamin [vitamin B12]
Refractory phase with less absorption after ingestion of a dose [1]: about 3 hours
Schilling test I, percentage of vitamin B12 excreted in the urine [2]: 2% and 10% and 15%
Serum vitamin B12, median [3, 5]: 279 pmol/L
TC saturation (holo-TC/total-TC), median [3, 5]: 0.13 fraction
Holo-TC, median [3, 5]: 118 pmol/L
Serum vitamin B12, median [3, 6]: 253 pmol/L
TC saturation (holo-TC/total-TC), median [3, 6]: 0.11 fraction
Holo-TC, median [3, 6]: 87 pmol/L
Serum vitamin B12, median [3, 7]: 260 pmol/L
TC saturation (holo-TC/total-TC), median [3, 7]: 0.09 fraction
Holo-TC, median [3, 7]: 80 pmol/L
Minimum increase for TC saturation (day 1-day 0) [3, 8]: 0.02
Minimum increase for holo-TC (day 1-day 0) [3, 8]: 15 pmol/L
Increase of TC saturation, median value [3, 9]: around 50%
Increase of holo TC, median value [3, 9]: around 50%
Absolute increase in serum vitamin B12, median (range) [3, 10]: 36 (−27-290) pmol/L
Percentage increase in serum vitamin B12, median (range) [3, 10]: 14 (−8-+51) % and 14%
Maximal absolute increase in TC saturation, median (range) [3, 11]: 0.04 (0-0.23) fraction
Maximal absolute increase in holo-TC, median (range) [3, 11]: 34 (0-149) pmol/L
Maximal percentage increase in TC saturation, median (range) [3, 11]: 52 (−2-+128) %
Maximal percentage increase in holo-TC, median (range) [3, 11]: 39 (0-+108) %
Increase in TC saturation after vitamin B12 intake [4]: 0.004 and 0.01 (2×)
Increase in holo-TC after vitamin B12 intake [4]: 3 pmol/L and 7 pmol/L and 14 pmol/L
